Results on nine molecules are retold here after PMC8950700 (Pharmaceuticals, 2022).

Read-outs that look alike come from different tables or passages of the source.

In data set [1] the test system is H5N1V116A virus. It counts as cell-based, influenza A virus. To be noted: read-out: IC50 (50% Inhibitory Concentration) H5N1V116A.
The nature of data set [2]: in vitro. To be noted: dog.
The subject of data set [3] is A/California/04/2009 (H1N1). Put plainly: microbe, parasite or virus in culture. It counts as cell-based. To be noted: Influenza A virus.
The test system of data set [4] is H5N1N295S virus. It counts as cell-based, influenza A virus. To be noted: read-out: IC50 (50% Inhibitory Concentration) H5N1N295S.
Data set [5] concerns A/chicken/Egypt/B13825A/2017 (H5N1wild). Put plainly: microbe, parasite or virus in culture. To be noted: Influenza A virus. It counts as cell-based.
For data set [6], the system named is H5N1V116A virus. It counts as cell-based, influenza A virus.
For data set [7], the system named is H5N1wild virus. It counts as cell-based.
Data set [8] has as its system H1N1 virus. To be noted: mouse, in vivo.
Data set [9] has as its system H1N1 virus. It counts as cell-based.
For data set [10], the system named is H5N1N295S virus. In kind it is cell-based, influenza A virus.
For data set [11] the following is noted: mouse, in vivo.
Data set [12] concerns H5N1wild virus. To be noted: mouse, in vivo.
The mark [13] stands for this setting: H1N1, read-out: IC50 (50% Inhibitory Concentration) H1N1.
Setting [14] is: H1N1, read-out: IC50 H1N1 (Figure 5).
Setting [15] is: read-out: IC50 (50% Inhibitory Concentration) H5N1wild.

On to `CC(=O)OC[C@H]1O[C@@H](OCc2cn(Cc3nc4ccccc4[nH]3)nn2)[C@H](OC(C)=O)[C@@H](OC(C)=O)[C@@H]1OC(C)=O` [Compound 7a, (2R,3R,4S,5R,6R)-2-((1-((1H-Benzo[d]imidazol-2-yl)methyl)-1H-1,2,3-triazol-4-yl)methoxy)-6-(acetoxymethyl)tetrahydro-2H-pyran-3,4,5-triyl Triacetate], for which the IC50 in data set [1] was 48.3 µM; in data set [3] (setting [13]) it was 84.9 µM; in data set [3] (setting [14]) it was 84.9 µM; in data set [4] it was 283 µM; in data set [5] (setting [15]) it was 325 µM; in data set [5] (read-out: IC50 H5N1wild (Figure 5)), 325 µM. In addition, the CC50 at 72 h in data set [2] is 685 µM.
`CC(=O)OC[C@H]1O[C@@H](OCc2cn(Cc3nc4ccccc4o3)nn2)[C@H](OC(C)=O)[C@@H](OC(C)=O)[C@@H]1OC(C)=O` [Compound 7b, (2R,3R,4S,5R,6R)-2-(Acetoxymethyl)-6-((1-(benzo[d]oxazol-2-ylmethyl)-1H-1,2,3-triazol-4-yl)methoxy)tetrahydro-2H-pyran-3,4,5-triyl Triacetate]: the IC50 came out at 22.6 µM in data set [1]; 1.68 µM in [3] (setting [13]); 1.68 µM in [3] (setting [14]); 15.5 µM in data set [4]; 37 µM in data set [5] (setting [15]). This molecule also registered a CC50 at 72 h in [2] of 1050 µM.
As for `CC(=O)OC[C@H]1O[C@@H](OCc2cn(Cc3nc4ccccc4s3)nn2)[C@H](OC(C)=O)[C@@H](OC(C)=O)[C@@H]1OC(C)=O` [Compound 7c, (2R,3R,4S,5R,6R)-2-(Acetoxymethyl)-6-((1-(benzo[d]thiazol-2-ylmethyl)-1H-1,2,3-triazol-4-yl)methoxy)tetrahydro-2H-pyran-3,4,5-triyl Triacetate], the IC50 in [1] was found to be 11.3 µM; in [3] (setting [13]), 1.65 µM; in data set [3] (setting [14]), 1.66 µM; in data set [4] it was 37.4 µM; in [5] (setting [15]), 1.62 µM. For the same molecule, the CC50 at 72 h in [2] is 764 µM.
Take `CC(=O)OC[C@H]1O[C@@H](OCc2cn(Cc3nc4ccccc4[nH]3)nn2)[C@H](OC(C)=O)[C@@H](OC(C)=O)[C@H]1OC(C)=O` [Compound 8a, (2R,3R,4S,5S,6R)-2-((1-((1H-Benzo[d]imidazol-2-yl)methyl)-1H-1,2,3-triazol-4-yl)methoxy)-6-(acetoxymethyl)tetrahydro-2H-pyran-3,4,5-triyl Triacetate]: the IC50 in data set [1] amounted to 924 µM; in [3] (setting [13]), 1.61 µM; in [4], 22.8 µM; in data set [5] (setting [15]) it was 26.3 µM. The CC50 at 72 h in data set [2] was 503 µM.
With `CC(=O)OC[C@H]1O[C@@H](OCc2cn(Cc3nc4ccccc4o3)nn2)[C@H](OC(C)=O)[C@@H](OC(C)=O)[C@H]1OC(C)=O` [Compound 8b, (2R,3S,4S,5R,6R)-2-(Acetoxymethyl)-6-((1-(benzo[d]oxazol-2-ylmethyl)-1H-1,2,3-triazol-4-yl)methoxy)tetrahydro-2H-pyran-3,4,5-triyl Triacetate], the “inhibition in the viral HA titer, H5N1V116A” value (shortened to “inhibition … H5N1V116A”) in [6] is reported as “more than 80%”. Also, the IC50 in data set [1] stood at 16.2 µM; in [3] (setting [13]) it was 1.7 µM; in [3] (setting [14]) it was 1.7 µM; in data set [4], 19.6 µM; in [5] (setting [15]) it was 8.63 µM. Moreover, the “inhibition in the viral HA titer, H5N1wild” value (from here on “inhibition … H5N1wild”) in data set [7] is “more than 80%”. The molecule also registered a CC50 at 72 h in data set [2] of 788 µM. Further, in [8], the “survival after infection with H1N1” value is given as 60%. The “inhibition in the viral HA titer, H1N1” value in data set [9] is “more than 80%”. In addition, in data set [10], the “inhibition in the viral HA titer, H5N1N295S” value (“inhibition … H5N1N295S” below) is reported as “not more than 60%”. In addition, the “external observations of mice” value in data set [11] was “normal in external observations”. In addition, the ALT in data set [11] (20 mg/kg) was determined as 10.66 ± 4.32; in [11] (40 mg/kg), 8.20 ± 2.62; in [11] (80 mg/kg), 6.72 ± 1.47. Also, the AST in [11] (20 mg/kg) worked out at 15 ± 3.41; in data set [11] (40 mg/kg) it was 15.77 ± 0.9944; in [11] (80 mg/kg) it was 16 ± 5.099. Besides, the Creatinine in [11] (20 mg/kg) stood at 0.17 ± 0.04; in [11] (40 mg/kg), 0.13 ± 0.04; in [11] (80 mg/kg), 0.10 ± 0.02. In addition, the Urea stood at 9.00 ± 3.81 in data set [11] (20 mg/kg), 6.66 ± 1.54 in data set [11] (40 mg/kg) and 7.32 ± 3.90 in [11] (80 mg/kg). Besides, the “survival after infection with H5N1wild” value in data set [12] was 60%.
Take `CC(=O)OC[C@H]1O[C@@H](OCc2cn(Cc3nc4ccccc4s3)nn2)[C@H](OC(C)=O)[C@@H](OC(C)=O)[C@H]1OC(C)=O` [Compound 8c, (2R,3S,4S,5R,6R)-2-(Acetoxymethyl)-6-((1-(benzo[d]thiazol-2-ylmethyl)-1H-1,2,3-triazol-4-yl)methoxy)tetrahydro-2H-pyran-3,4,5-triyl Triacetate]: the IC50 in data set [1] is 68.6 µM; in data set [3] (setting [13]), 1.64 µM; in data set [3] (setting [14]), 1.64 µM; in data set [4], 64.7 µM; in [5] (setting [15]) it was 1.65 µM. Further, the CC50 at 72 h in [2] came out at 312 µM.
Take `CC(=O)O[C@@H]1[C@@H](OC(C)=O)[C@H](OCc2cn(Cc3nc4ccccc4[nH]3)nn2)OC[C@H]1OC(C)=O` [Compound 9a, (2R,3R,4S,5R,)-2-((1-((1H-Benzo[d]imidazol-2-yl)methyl)-1H-1,2,3-triazol-4-yl)methoxy)tetrahydro-2H-pyran-3,4,5-triyl Triacetate]: the “inhibition … H5N1V116A” value in [6] was “more than 80%”. Further, the IC50 in data set [1] amounted to 5.62 µM; in data set [3] (setting [13]), 1.65 µM; in [3] (setting [14]), 1.65 µM; in [4], 5.62 µM; in [5] (setting [15]) it was 5.8 µM. Moreover, the “inhibition … H5N1wild” value in data set [7] is “not more than 50%”. Also, in data set [2], the CC50 at 72 h came to 795 µM. Further, the “survival after infection with H1N1” value in data set [8] was determined as 60%. Also, the “viral titer in lung tissue (TCID50), H1N1” value in [8] is given as “significantly reduced the propagation”. The “virus shedding in the nasal wash (EID50), H1N1” value in data set [8] is “significantly reduced the viral titer”. Moreover, the “inhibition in the viral HA titer, H1N1” value in [9] was “more than 80%”. Further, in [10], the “inhibition … H5N1N295S” value is “not more than 50%”. For the same molecule, the “external observations of mice” value in data set [11] was “normal in external observations”. The results for the ALT in [11] (20 mg/kg), in data set [11] (40 mg/kg) and in [11] (80 mg/kg) were 9.64 ± 3.64, 10.64 ± 1.38 and 8.67 ± 2.16, respectively. The figures for the AST in data set [11] (20 mg/kg), in data set [11] (40 mg/kg) and in [11] (80 mg/kg) were 20 ± 6.957, 13.77 ± 1.298 and 15.33 ± 0.9686, respectively. Also, the Creatinine in [11] (20 mg/kg) is listed as 0.13 ± 0.04; in data set [11] (40 mg/kg), 0.13 ± 0.04; in data set [11] (80 mg/kg), 0.17 ± 0.04. Besides, the Urea in [11] (20 mg/kg) is recorded as 7.32 ± 2.09; in data set [11] (40 mg/kg), 7.32 ± 0.48; in data set [11] (80 mg/kg), 4.64 ± 1.12. Also, in data set [12], the “virus shedding in the nasal wash (EID50), H5N1wild” value is listed as “reduced the viral shedding”.
As for `CC(=O)O[C@@H]1[C@@H](OC(C)=O)[C@H](OCc2cn(Cc3nc4ccccc4o3)nn2)OC[C@H]1OC(C)=O` [Compound 9b, (2R,3R,4S,5R)-2-((1-(Benzo[d]oxazol-2-ylmethyl)-1H-1,2,3-triazol-4-yl)methoxy)tetrahydro-2H-pyran-3,4,5-triyl Triacetate], the IC50 was determined as 56.7 µM in data set [1], 1.68 µM in data set [3] (setting [13]), 12.3 µM in data set [4] and 1.67 µM in data set [5] (setting [15]). For the same molecule, the CC50 at 72 h in data set [2] is 478 µM.
As to `CC(=O)O[C@@H]1[C@@H](OC(C)=O)[C@H](OCc2cn(Cc3nc4ccccc4s3)nn2)OC[C@H]1OC(C)=O` [Compound 9c, (2R,3R,4S,5R)-2-((1-(Benzo[d]thiazol-2-ylmethyl)-1H-1,2,3-triazol-4-yl)methoxy)tetrahydro-2H-pyran-3,4,5-triyl Triacetate], the “inhibition … H5N1V116A” value in data set [6] is reported as “more than 80%”. For the same molecule, the IC50 in [1] worked out at 1.65 µM; in [3] (setting [13]) it was 1.64 µM; in data set [3] (setting [14]), 1.64 µM; in [4], 55.1 µM; in data set [5] (setting [15]), 2.25 µM. Besides, the “inhibition … H5N1wild” value in data set [7] was “more than 80%”. In data set [2], the CC50 at 72 h is 302 µM. Further, the “survival after infection with H1N1” value in data set [8] is reported as “full protection from mortality”. Also, in [8], the “viral titer in lung tissue (TCID50), H1N1” value was “reduced the propagation”. The “inhibition in the viral HA titer, H1N1” value in [9] is reported as “more than 80%”. Further, in data set [10], the “inhibition … H5N1N295S” value was “not more than 50%”. For the same molecule, the “external observations of mice” value in [11] is reported as “normal in external observations”. Besides, the ALT in data set [11] (20 mg/kg) is given as 7.60 ± 1.56; in data set [11] (40 mg/kg) it was 7.80 ± 2.07; in data set [11] (80 mg/kg), 5.54 ± 1.22. In addition, the AST in data set [11] (20 mg/kg) was found to be 11.93 ± 3.765; in data set [11] (40 mg/kg) it was 9.689 ± 2.922; in data set [11] (80 mg/kg) it was 12.33 ± 3.169. Besides, the results for the Creatinine in [11] (20 mg/kg), in data set [11] (40 mg/kg) and in data set [11] (80 mg/kg) were 0.14 ± 0.05, 0.14 ± 0.05 and 0.13 ± 0.04, respectively. In addition, the Urea in [11] (20 mg/kg) amounted to 7.90 ± 3.13; in data set [11] (40 mg/kg), 3.64 ± 1.49; in [11] (80 mg/kg), 4.88 ± 2.13. The “survival after infection with H5N1wild” value in data set [12] is listed as 80%. Also, the “viral titer in lung tissue (TCID50), H5N1wild” value in [12] is given as “reduced the propagation”. In [12], the “virus shedding in the nasal wash (EID50), H5N1wild” value is “reduced the viral shedding”.
